Article PMC9090410 (Journal of Enzyme Inhibition and Medicinal Chemistry, 2022)

Key:
[1] = target: T1, Recombinant HDAC 8 (Homo sapiens, UniProt Q9BY41); test: Recombinant HDAC8 inhibition, fluorometric assay, 8 h incubation; type: biochemical; settings: for IC50: recombinant HDAC8, fluorometric assay, incubating for 8 h, standard deviation in parentheses
T1 construct: purchased not specified (Fisher Scientific, Sigma-Aldrich or Chem-Impex are named for all reagents)
T1 sequence (Q9BY41 1-377): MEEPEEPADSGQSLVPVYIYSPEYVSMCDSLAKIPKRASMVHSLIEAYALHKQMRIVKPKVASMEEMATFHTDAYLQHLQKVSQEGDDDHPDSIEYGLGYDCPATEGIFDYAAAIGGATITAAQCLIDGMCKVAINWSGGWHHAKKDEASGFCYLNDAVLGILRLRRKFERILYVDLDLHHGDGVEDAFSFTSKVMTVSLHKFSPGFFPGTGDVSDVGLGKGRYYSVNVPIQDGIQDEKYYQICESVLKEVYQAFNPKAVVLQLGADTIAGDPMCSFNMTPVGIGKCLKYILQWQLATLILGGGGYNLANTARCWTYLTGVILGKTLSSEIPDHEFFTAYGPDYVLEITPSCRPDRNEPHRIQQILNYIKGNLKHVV
Method: (§1) Once prepared, the compounds were screened for inhibition of HDAC activity from the cell lysates of HeLa cells and the recombinant isoforms HDAC3 and HDAC8. […]
(§2) then added followed by further incubation for 10 min at 25 °C. The enzyme activities was measured based on the fluorescence intensity at excitation 350-380 nm and emission 440-480 nm in a plate reader. A control set of data without the presence of inhibitor was acquired using 45 µL of buffer.
(§3) Inhibitors 1-7 were screened using a commercially available In Situ Histone Deacetylase Activity […]
(§4) divergence being the 8 hr incubation time.

[2] = target: T2, Recombinant HDAC 3 (Homo sapiens, UniProt O15379); test: Recombinant HDAC3 inhibition, fluorometric assay, 8 h incubation; type: biochemical; settings: for IC50: recombinant HDAC3, fluorometric assay, incubating for 8 h, standard deviation in parentheses
T2 construct: purchased not specified (Fisher Scientific, Sigma-Aldrich or Chem-Impex are named for all reagents)
T2 sequence (O15379 whole entry): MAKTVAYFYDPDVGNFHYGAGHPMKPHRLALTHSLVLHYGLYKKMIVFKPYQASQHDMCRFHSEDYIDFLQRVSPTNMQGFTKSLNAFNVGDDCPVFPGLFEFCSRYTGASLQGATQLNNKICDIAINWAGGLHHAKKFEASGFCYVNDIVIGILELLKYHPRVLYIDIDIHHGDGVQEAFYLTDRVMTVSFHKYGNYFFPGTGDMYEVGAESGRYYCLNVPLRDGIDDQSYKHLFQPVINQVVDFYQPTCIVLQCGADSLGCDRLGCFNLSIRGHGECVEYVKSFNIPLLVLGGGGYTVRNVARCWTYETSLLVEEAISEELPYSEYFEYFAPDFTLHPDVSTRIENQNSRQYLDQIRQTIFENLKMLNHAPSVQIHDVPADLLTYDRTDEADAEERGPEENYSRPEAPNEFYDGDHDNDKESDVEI
T2 sequence (Q9Y618 395-489 partner limits assumed): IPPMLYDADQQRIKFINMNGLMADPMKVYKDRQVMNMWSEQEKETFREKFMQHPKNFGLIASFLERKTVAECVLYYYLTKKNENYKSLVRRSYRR
Method: as §1, §2, §3, §4

[3] = test system: HDACs from HeLa cell lysates; type: biochemical; settings: for IC50: HeLa cell extract, fluorometric assay, incubating for 8 h, standard deviation in parentheses, read-out: HeLa Cell Lysate IC50
Method: as §1, §2, §3, §4

[4] = test system: HeLa cell lysates; settings: 10 h incubation time; ref Kapustin et al. (23); read-out: IC50 Hela cell lysate; cited from earlier work
[5] = time course enzyme inhibition assay, inhibitor at 100 μM

| Compound | IC50 [1] | Incubation time of optimal inhibition, HDAC 8 [1, 5] | IC50 [2] | Incubation time of optimal inhibition, HDAC 3 [2, 5] | IC50 [3] | Incubation time of optimal inhibition, HeLa cell lysate [3, 5] | IC50 [4] |
| --- | --- | --- | --- | --- | --- | --- | --- |
| O=C(CCCCCNP(=O)(O)O)Nc1ccccc1 [Compound 2] | 129 µM | 8 h | 240 µM | 4 h | 70 µM | 8 h | – |
| O=C(CCCCCOP(O)(O)=S)Nc1ccccc1 [Compound 7] | 49 µM | – | 103 µM | – | 50 µM | – | – |
| O=C(CCCCCOP(=O)(O)O)Nc1ccccc1 [Compound 5] | 179 µM | – | 690 µM | – | 60 µM | – | – |
| CP(=O)(O)CCCCCC(=O)Nc1ccccc1 [PA3] | – | – | – | – | – | – | 6100 µM |
| O=C(CCCCOP(=O)(O)O)Nc1ccccc1 [Compound 4] | – | – | – | – | 2200 µM | – | – |
| O=C(CCCCCCOP(=O)(O)O)Nc1ccccc1 [Compound 6] | – | – | – | – | 3900 µM | – | – |
